Measured values reported in US11058688B2, “Imidazopiperazine inhibitors of transcription activating proteins” (Board of Regents, The University of Texas System, priority 2018, dated 2021).

Assays:
[1] = molecular target: GST-CBP(1081-1197) bromodomain (Homo sapiens (Human), UniProt Q92793); experiment: CBP AlphaScreen Assay; details: binding to biotin-H4(1-21) Ac-K5/8/12/16 peptide
Procedure, shortened: (§1)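 IC50 values derived by variable-slope dose-response fit between negative and DMSO control signals. AlphaScreen signal reports bromodomain association with an H4(1-21) peptide acetylated at K5, K8, K12 and K16.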

BRD4(49-170) bromodomain = BRD4(49-170) bromodomain (Homo sapiens (Human), UniProt O60885); experiment: BRD4 AlphaScreen Assay; details: binding to biotin-H4(1-21) Ac-K5/8/12/16 peptide
Procedure, shortened: as §1

Chain of GST-CBP(1081-1197) bromodomain (Q92793 1081-1197): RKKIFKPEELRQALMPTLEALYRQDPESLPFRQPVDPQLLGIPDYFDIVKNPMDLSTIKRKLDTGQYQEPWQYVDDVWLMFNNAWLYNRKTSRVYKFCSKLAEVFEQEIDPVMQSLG

Row | SMILES | IC50 [1] | IC50 (BRD4(49-170) bromodomain)
1 | CC(=O)N1CCn2c(N3CCOCC3)nc(-c3ccc4c(c3)c(-c3cnn(C)c3)nn4C)c2C1 [Example 16, 1-(1-(1-Methyl-3-(1-methyl-1H-pyrazol-4-yl)-1H-indazol-5-yl)-3-morpho-lino-5,6-dihydroimidazo[1,5-a]pyrazin-7(8H)-yl)ethanone] | 392 nM | > 25000 nM
2 | CNC(=O)N1CCn2c(C3CCC(F)(F)CC3)nc(-c3c(F)ccc4cc(-c5cnc(C)s5)ncc34)c2C1 [Example 93, 3-(4,4-difluorocyclohexyl)-1-(7-fluoro-3-(2-methylthiazol-5-yl)isoquinolin-8-yl)-N-methyl-5,6-dihydroimidazo[1,5-a]pyrazine-7(8H)-carboxamide] | 2 nM | > 25000 nM
3 | CC(=O)N1CCn2cnc(-c3ccc4c(c3)c(-c3cnn(C)c3)nn4C)c2C1 [Example 10, 1-(1-(1-Methyl-3-(1-methyl-1H-pyrazol-4-yl)-1H-indazol-5-yl)-5,6-dihydroimidazo[1,5-a]pyrazin-7(8H)-yl)ethanone] | 197 nM | > 10000 nM
4 | CNC(=O)N1CCn2c(C3CCOCC3)nc(-c3cccc4cc(-c5cnc(C)s5)ncc34)c2C1 [Example 95, N-methyl-1-(3-(2-methylthiazol-5-yl)isoquinolin-8-yl)-3-(tetrahydro-2H-pyran-4-yl)-5,6-dihydroimidazo[1,5-a]pyrazine-7(8H)-carboxamide] | 1 nM | 3480 nM
5 | CNC(=O)N1CCn2c(C3CCC(F)(F)CC3)nc(-c3cccc4nc(-c5cnn(C)c5)c(C(F)(F)F)cc34)c2C1 [Example 78, 3-(4,4-difluorocyclohexyl)-N-methyl-1-(2-(1-methyl-1H-pyrazol-4-yl)-3-(trifluoromethyl)quinolin-5-yl)-5,6-dihydroimidazo[1,5-a]pyrazine-7(8H)-carboxamide] | 1 nM | 13500 nM
6 | CC(=O)N1CCn2c(C3CC3)nc(N3CCCc4cc(-c5ccc(=O)n(C)c5)ccc43)c2C1 [Example 113, 5-(1-(7-acetyl-3-cyclopropyl-5,6,7,8-tetrahydroimidazo[1,5-a]pyrazin-1-yl)-1,2,3,4-tetrahydroquinolin-6-yl)-1-methylpyridin-2(1H)-one] | 193 nM | 3460 nM
7 | CNC(=O)N1CCn2c(C3CC3)nc(-c3ccnc4nc(-c5cnn(C)c5)c(C(F)F)cc34)c2C1 [Example 36, 3-Cyclopropyl-1-(6-(difluoromethyl)-7-(1-methyl-1H-pyrazol-4-yl)-1,8-naphthyridin-4-yl)-N-methyl-5,6-dihydroimidazo[1,5-a]pyrazine-7(8H)-carboxamide] | 38 nM | 9710 nM
8 | CNC(=O)c1nc(-c2ccc3c(c2)c(-c2cnn(C)c2)nn3C)c2n1CCN(C(C)=O)C2 [Example 31, 7-Acetyl-N-methyl-1-(1-methyl-3-(1-methyl-1H-pyrazol-4-yl)-1H-indazol-5-yl)-5,6,7,8-tetrahydroimidazo[1,5-a]pyrazine-3-carboxamide] | 611 nM | 7470 nM
9 | CC(=O)N1CCn2c(C3CC3)nc(N3CCCc4cc(-c5cnn(C(F)F)c5)ccc43)c2C1 [Example 110, 1-(3-cyclopropyl-1-(6-(1-(difluoromethyl)-1H-pyrazol-4-yl)-3,4-dihydroquinolin-1(2H)-yl)-5,6-dihydroimidazo[1,5-a]pyrazin-7(8H)-yl)ethan-1-one] | 185 nM | 11200 nM
10 | CNC(=O)N1CCn2c(C3CCOCC3)nc(-c3cccc4nc(-c5cnn(C)c5)c(C#N)cc34)c2C1 [Example 64, 1-(3-cyano-2-(1-methyl-1H-pyrazol-4-yl)quinolin-5-yl)-N-methyl-3-(tetrahydro-2H-pyran-4-yl)-5,6-dihydroimidazo[1,5-a]pyrazine-7(8H)-carboxamide] | 4 nM | 22800 nM
11 | CNC(=O)N1CCn2c(C3CC(F)(F)C3)nc(-c3cccc4cc(C5CCOCC5)ncc34)c2C1 [Example 85, 3-(3,3-difluorocyclobutyl)-N-methyl-1-(3-(tetrahydro-2H-pyran-4-yl)isoquinolin-8-yl)-5,6-dihydroimidazo[1,5-a]pyrazine-7(8H)-carboxamide] | 15 nM | 18100 nM
12 | CC(=O)N1CCn2c(C3CC3)nc(N3CCCc4cc(-c5cnn(C6CCOCC6)c5)ccc43)c2C1 [Example 109, 1-(3-cyclopropyl-1-(6-(1-(tetrahydro-2H-pyran-4-yl)-1H-pyrazol-4-yl)-3,4-dihydroquinolin-1(2H)-yl)-5,6-dihydroimidazo[1,5-a]pyrazin-7(8H)-yl)ethan-1-one] | 349 nM | 13800 nM
13 | CNC(=O)N1CCn2c(C3CC3)nc(N3CCCc4cc(-c5cnn(C)c5)c(C(F)F)cc43)c2C1 [Example 3, 3-cyclopropyl-1-(7-(difluoromethyl)-6-(1-methyl-1H-pyrazol-4-yl)-3,4-dihydroquinolin-1(2H)-yl)-N-methyl-5,6-dihydroimidazo[1,5-a]pyrazine-7(8H)-carboxamide] | 5 nM | > 10000 nM
14 | CC(=O)N1CCn2c(C3CC3)nc(N3CCCc4cc(-c5cnn(C6CC6)c5)ccc43)c2C1 [Example 108, 1-(3-cyclopropyl-1-(6-(1-cyclopropyl-1H-pyrazol-4-yl)-3,4-dihydroquinolin-1(2H)-yl)-5,6-dihydroimidazo[1,5-a]pyrazin-7(8H)-yl)ethan-1-one] | 148 nM | 14300 nM
15 | CNC(=O)N1CCn2c(C3CCC(F)(F)CC3)nc(-c3cccc4cc(-c5ccn(C)n5)ncc34)c2C1 [Example 80, 3-(4,4-difluorocyclohexyl)-N-methyl-1-(3-(1-methyl-1H-pyrazol-3-yl)isoquinolin-8-yl)-5,6-dihydroimidazo[1,5-a]pyrazine-7(8H)-carboxamide] | 2 nM | 11900 nM
16 | CC(=O)N1CCn2c(C3CC3)nc(N3CCCc4cc(-c5cnn(Cc6ccccn6)c5)ccc43)c2C1 [Example 116, 1-(3-cyclopropyl-1-(6-(1-(pyridin-2-ylmethyl)-1H-pyrazol-4-yl)-3,4-dihydroquinolin-1(2H)-yl)-5,6-dihydroimidazo[1,5-a]pyrazin-7(8H)-yl)ethan-1-one] | 1280 nM | > 25000 nM
17 | CNC(=O)N1CCn2c(C3CCC(F)(F)CC3)nc(-c3cccc4nc(-c5cnn(C)c5)c(C#N)cc34)c2C1 [Example 82, 1-(3-cyano-2-(1-methyl-1H-pyrazol-4-yl)quinolin-5-yl)-3-(4,4-difluorocyclohexyl)-N-methyl-5,6-dihydroimidazo[1,5-a]pyrazine-7(8H)-carboxamide] | 3 nM | 17900 nM
18 | CNC(=O)N1CCn2c(C3CCNCC3)nc(-c3ccc4c(c3)c(-c3cnn(C)c3)nn4C)c2C1 [Example 52, N-methyl-1-(1-methyl-3-(1-methyl-1H-pyrazol-4-yl)-1H-indazol-5-yl)-3-(piperidin-4-yl)-5,6-dihydroimidazo[1,5-a]pyrazine-7(8H)-carboxamide] | 20 nM | > 10000 nM
19 | CNC(=O)N1CCn2c(C3CC3)nc(-c3cccc4cc(-c5cnc(C)s5)ncc34)c2C1 [Example 23, 3-Cyclopropyl-N-methyl-1-(3-(2-methylthiazol-5-yl)isoquinolin-8-yl)-5,6-dihydroimidazo[1,5-a]pyrazine-7(8H)-carboxamide] | 1 nM | 3850 nM
20 | CNC(=O)N1CCn2c(C)nc(-c3ccc4c(c3)c(-c3cnn(C)c3)nn4C)c2C1 [Example 48, N,3-dimethyl-1-(1-methyl-3-(1-methyl-1H-pyrazol-4-yl)-1H-indazol-5-yl)-5,6-dihydroimidazo[1,5-a]pyrazine-7(8H)-carboxamide] | 36 nM | > 10000 nM
21 | CC(=O)N1CCn2c(C3CC3)nc(-c3ccc4nn(C)c(-c5cnn(C)c5)c4c3F)c2C1 [Example 27, 1-(3-Cyclopropyl-1-(4-fluoro-2-methyl-3-(1-methyl-1H-pyrazol-4-yl)-2H-indazol-5-yl)-5,6-dihydroimidazo[1,5-a]pyrazin-7(8H)-yl)ethan-1-one] | 1220 nM | > 25000 nM
22 | CNC(=O)N1CCn2c(C3CC3)nc(-c3cccc4nc(-c5cnn(C)c5)ncc34)c2C1 [Example 37, 3-Cyclopropyl-N-methyl-1-(2-(1-methyl-1H-pyrazol-4-yl)quinazolin-5-yl)-5,6-dihydroimidazo[1,5-a]pyrazine-7(8H)-carboxamide] | 16 nM | 14300 nM
23 | CNC(=O)N1CCn2cnc(-c3ccc4c(c3)c(-c3cnn(C)c3)nn4C)c2C1 [Example 11, N-Methyl-1-(1-methyl-3-(1-methyl-1H-pyrazol-4-yl)-1H-indazol-5-yl)-5,6-dihydroimidazo[1,5-a]pyrazine-7(8H)-carboxamide] | 26 nM | > 10000 nM
24 | CNC(=O)c1ccc(-c2cc3cccc(-c4nc(C5CCOCC5)n5c4CN(C(=O)NC)CC5)c3cn2)cn1 [Example 57, N-methyl-1-(3-(6-(methylcarbamoyl)pyridin-3-yl)isoquinolin-8-yl)-3-(tetrahydro-2H-pyran-4-yl)-5,6-dihydroimidazo[1,5-a]pyrazine-7(8H)-carboxamide] | 1 nM | 5970 nM
25 | CNC(=O)N1CCn2c(C3CN(C)C3)nc(-c3ccc4c(c3)c(-c3cnn(C)c3)nn4C)c2C1 [Example 8, N-Methyl-1-(1-methyl-3-(1-methyl-1H-pyrazol-4-yl)-1H-indazol-5-yl)-3-(1-methylazetidin-3-yl)-5,6-dihydroimidazo[1,5-a]pyrazine-7(8H)-carboxamide] | 115 nM | > 10000 nM
26 | CNC(=O)N1CCn2c(C3CCC(F)(F)CC3)nc(-c3cccc4cc(-c5cn(C)nc5C)ncc34)c2C1 [Example 76, 3-(4,4-difluorocyclohexyl)-1-(3-(1,3-dimethyl-1H-pyrazol-4-yl)isoquinolin-8-yl)-N-methyl-5,6-dihydroimidazo[1,5-a]pyrazine-7(8H)-carboxamide] | 3 nM | 11900 nM
27 | CNC(=O)N1CCn2c(C3CC3)nc(-c3cccc4cc(-c5cn(C)nc5C)ncc34)c2C1 [Example 69, 3-cyclopropyl-1-(3-(1,3-dimethyl-1H-pyrazol-4-yl)isoquinolin-8-yl)-N-methyl-5,6-dihydroimidazo[1,5-a]pyrazine-7(8H)-carboxamide] | 17 nM | 10100 nM
